Assay results taken from US5047533A, “Acyclic purine phosphonate nucleotide analogs” (SRI International, priority 1990, dated 1991).
In brackets after ≈: the same amount, converted by molar mass. Read-outs that look alike come from different tables or passages of the source.

Assays:
HIV = assay: Antiviral activity versus HIV in lymphoblastoid cells; type: cell-based; conditions: Human immunodeficiency virus 1, Lymphoblastoid cell, read-out: ED50 against HIV
Protocol: The compounds of the invention were evaluated in vitro as antiviral agents against herpes virus and against RNA retrovirus. Various herpes strains were used. An infected B lymphoblastoid cell line was used as HIV substrate to test antiviral activity with respect to RNA retrovirus.
To test antiviral activity versus HIV, the following procedure was used: Infectious HIV was assayed in cell culture as described originally by Barre-Sinoussi et al for isolation of LAV, except that persistently infected lymphoblastoid cells were used instead of mononuclear cells from anti-LAV negative donors. HIV obtained from cell culture was stored in liquid nitrogen in aliquots of RPMI 1640 culture medium with 20% of total calf serum and 20% glycerol and containing 1,000 TCID-50 HIV. The lymphoblastoid cells (10^6) were incubated with 1,000 TCID-50 of HIV obtained from cell cultures, and cells were then cultured in RPMI-1640 medium. Culture medium was changed every 3 days for 3 weeks and the medium for each 3-day period from Day 6 through Day 21 was assayed for viral reverse transcriptase activity by concentrating (pelleting) virus by ultracentrifugation in the 100 place Spinco 25 rotor and assaying pellets for reverse transcriptase (RT) using a ^32 P-dTTP in the presence of dimer-template poly rA-oligo dT. […]

[1] = Cytotoxicity (maximum tolerated dose), control tests in 96-well microplates; type: cell-based; conditions: Table 5; microscopic examination, separately run control tests; read-out: Approx. MTD (dose causing approximately 50% cytotoxic effects in cells)
Excerpt: (§1) ^b Maximum tolerated dose: That dose causing approximately 50%
(§2) cytotoxic effects in cells, determined by the microscopic examination of
(§3) cells for sloughing, shape alteration, and granularity in separately run
(§4) control tests in 96well microplates.
(§5) The data on acyclovir were gathered from tests run in MRC-5 cells grown under agarose overlay, with plaques read 7 days after virus exposure.

cells = assay: as above; type: cell-based; conditions: overall, Table 5
Excerpt: as §1, §2, §3, §4, §5

MA-104 cells = assay: Cytotoxicity controls (maximum tolerated dose) in MA-104 cells; type: cell-based, monkey; conditions: Table 3 Test 2
Protocol: (§6) Continuous passaged monkey kidney (MA-104) cells were used for testing of herpes-type virus, with growth medium consisting of Minimum Essential Medium (MEM) supplemented with 0.1% NaHCO3 and […] gentamicin.
(§7) To a 96 well microtiter plate containing an established 24 hour monolayer of cells from which the medium has been decanted was added 0.1 ml of varying (one-half log10) concentrations of test compound, which incubated on the cell 15 minutes, after which 0.1 ml of virus in a concentration of 320 cell culture 50% infectious doses (CCID50)/0.1 ml was added. The plate was covered with plastic wrap and incubated at 37° C. Included with the test were toxicity controls (each concentration of compound+test medium in place of virus), virus controls (virus+test medium in place of compound) and cell controls (test medium in place of compound and virus). The cells were examined microscopically after 72 hours for evidence of cytotoxicity and for viral cytopathic effect (CPE). Vidarabine was run on the same plate in parallel. […] were added to the medium at a concentration of 2000 μg/ml for use as a positive control.
*Maximum tolerated dose, μg/ml.

[2] = tested on: human cytomegalovirus (strain AD169); assay: Plaque reduction, human cytomegalovirus; type: cell-based
Protocol: (§8) One herpes virus strain employed was Strain McCrae of type 1 herpes (thymidine kinase positive virus) (HSV-1TK^+). This strain was prepared and titered in MA-104 cells and frozen at -90° C. until use. Also used were strain HF (HSV-1TK^-). Strain E194 (HSV-2), NJB strain (MCMV), strain AD169 (HCMV).
^a 50% effective dose, determined from plot of data.
as §5

HSV-1TK+ = assay: In vivo guinea pig HSV-1TK+ lesion test, topical solution; conditions: guinea pigs; for TK+ (average number of lesions): five days after treatment
Protocol: Compound 2 also was tested in vivo in guinea pigs as an agent against HSV-1TK^+. The animals were inoculated with the virus; 18 hours later Compound 2 at two concentrations (0.4% and 1-2% (saturated) solution in water) was administered, and five days later blister diameters at the point of inoculation were measured. A 5% solution of acyclovir or a 1.4% solution of poly(vinylalcohol) was used as control. Satellite lesions were measured, as well.

[3] = tested on: HSV-1TK+ (Strain McCrae of type 1 herpes); assay: Inhibition of viral CPE, HSV-1TK+ in MA-104 cells; type: cell-based
Protocol: as §8, §6, §7
Antiviral activity was determined by observation of inhibition of viral CPE. This activity was expressed by ED50, defined as that dose range of compound causing 50% CPE inhibition.
A Virus Rating (VR) was also determined. VR is a numerical expression of antiviral activity, weighted to take into account any cytotoxicity observed, as discussed by Sidewell et al, Appl Microbiol (1971) 22:797. Generally, a VR of 0.1-0.4 indicates slight antiviral effect, 0.5-0.9 indicates moderate antiviral effect, and ≥1.0 indicates strong antiviral effect.

[4] = 1-2% (saturated) solution in water

CCOP(=O)(O)CCCOCn1cnc2c(=O)[nH]c(N)nc21 [Compound 2, 9(3'-ethylphosphono-1'-propyloxymethyl)guanine]
EC50 (HIV): 30 µg/mL (≈ 90.6 µM) | CC50 [1]: ~1000 µg/mL (≈ 3020 µM) | cytotoxicity relative to acyclovir (cells): approximately the same | MTD (Maximum tolerated dose) (MA-104 cells): > 1000 µg/mL | No. Plaques ([2]; Experiment No. 1, 32 μg/ml): 5 | No. Plaques ([2]; Experiment No. 1, 100 μg/ml): 0 | No. Plaques ([2]; Experiment No. 2, 10 μg/ml): 17 | No. Plaques ([2]; Experiment No. 2, 32 μg/ml): 6 | No. Plaques ([2]; Experiment No. 2, 100 μg/ml): 1 | inhibition at 32 µg/mL ([2]; Human betaherpesvirus 5, AD169, read-out: % Reduct., Experiment No. 1, 32 μg/ml): 71% | inhibition at 100 µg/mL ([2]; Human betaherpesvirus 5, AD169, read-out: % Reduct., Experiment No. 1, 100 μg/ml): 100% | inhibition at 10 µg/mL ([2]; Human betaherpesvirus 5, AD169, read-out: % Reduct., Experiment No. 2, 10 μg/ml): 23% | inhibition at 32 µg/mL ([2]; Human betaherpesvirus 5, AD169, read-out: % Reduct., Experiment No. 2, 32 μg/ml): 73% | inhibition at 100 µg/mL ([2]; Human betaherpesvirus 5, AD169, read-out: % Reduct., Experiment No. 2, 100 μg/ml): 96% | EC50 ([2]; Human betaherpesvirus 5, AD169, read-out: Approx. ED50, Experiment No. 2, determined from plot of data): 10 to 32 µg/mL (≈ 30.2 to 96.6 µM) | EC50 ([2]; Human betaherpesvirus 5, AD169, read-out: ED50, human CMV): 10 µg/mL (≈ 30.2 µM) | human CMV-inhibitory effect relative to acyclovir ([2]; overall, Table 5): approximately the same | Satellite lesions (HSV-1TK+; 0.4% solution in water): 11 | TK+ (average number of lesions) (HSV-1TK+; 0.4% solution in water): 2.1 | Satellite lesions (HSV-1TK+; [4]): 6 | TK+ (average number of lesions) (HSV-1TK+; [4]): 0.9 | activity against HSV TK+ virus in vivo (HSV-1TK+; at least in saturated solution): has activity | activity against HSV-1TK+ relative to vidarabine [3]: comparable to that of vidarabine | EC50 ([3]; MA104, 72 h, read-out: ED50): < 1 µg/mL | inhibition at 1000 µg/mL ([3]; MA104, read-out: CPE Inhib., Table 3 Test 1, 1000 μg/ml): 100% | VR (Virus Rating) ([3]; Table 3 Test 1, HSV-1TK+): > 2.0 | ED50 ([3]; Table 3 Test 2, HSV-1TK+): < 1.0 µg/mL | VR (Virus Rating) ([3]; Table 3 Test 2, HSV-1TK+): > 1.4
